# Results as given in US9181218B2, “Compounds for improved stem cell differentiation into hepatocytes” (Hoffmann-La Roche Inc., priority 2013, dated 2015).
# Tested on: interferon-stimulated genes (ISGs)
# Assay: Microarray analysis of iCell Hepatocytes treated with the compound of example 1
# Assay type: cell-based, Human
# Settings: DAY 7
# Description: iCell Hepatocytes treated with the compound of example 1 results in the up and down-regulation of a host of genes; including a kinetic effect on interferon-stimulated gene (ISGs) expression. See FIGS. 15-I and 15-II, 16-I and 16-II and 18 and Table 1.
smiles,measurement,value
"O=C(NCc1cccc(F)c1)c1cccc2nc(-c3c(NC[C@@H](O)c4ccccc4)cc[nH]c3=O)[nH]c12 [Example 1, 2-[4-((S)-2-hydroxy-2-phenyl-ethylamino)-2-oxo-1,2-dihydro-pyridin-3-yl]-3H-benzoimidazole-4-carboxylic acid 3-fluoro-benzylamide]",ARHGEF3 Raw Est Fold Change,−2.76
same,ASNS Raw Est Fold Change,1.63
same,ATP1B3 Raw Est Fold Change,−1.72
same,ATP10D Raw Est Fold Change,−2.21
same,AXL Raw Est Fold Change,5.52
same,B2M Raw Est Fold Change,−1.77
same,B4GALT5 Raw Est Fold Change,−2.50
same,BAG1 Raw Est Fold Change,1.33
same,BCL3 Raw Est Fold Change,−3.15
same,BHMT Raw Est Fold Change,100.46
same,BLVRA Raw Est Fold Change,−2.70
same,BRF2 Raw Est Fold Change,1.46
same,C1R Raw Est Fold Change,−2.64
same,C1S Raw Est Fold Change,−2.00
same,C4BPA Raw Est Fold Change,−3.52
same,C4orf33 Raw Est Fold Change,1.65
same,C6orf85 Raw Est Fold Change,1.31
same,C10orf10 Raw Est Fold Change,−6.70
same,CAPN2 Raw Est Fold Change,−1.90
same,CASP1 Raw Est Fold Change,1.40
same,CASP4 Raw Est Fold Change,−43.41
same,CASP5 Raw Est Fold Change,−11.12
same,CCL19 Raw Est Fold Change,2.16
same,CCND3 Raw Est Fold Change,−4.18
same,CD3D Raw Est Fold Change,−3.72
same,CD9 Raw Est Fold Change,4.66
same,CD38 Raw Est Fold Change,−60.43
same,CD47 Raw Est Fold Change,−2.51
same,CD163 Raw Est Fold Change,4.54
same,CD164 Raw Est Fold Change,−1.47
same,CD300LF Raw Est Fold Change,−15.50
same,CEBPD Raw Est Fold Change,−6.95
same,CFB Raw Est Fold Change,−2.96
same,CHST12 Raw Est Fold Change,−1.59
same,CKB Raw Est Fold Change,2.95
same,CLEC2D Raw Est Fold Change,2.54
same,CLEC4E Raw Est Fold Change,4.33
same,COL16A1 Raw Est Fold Change,1.53
same,CPT1A Raw Est Fold Change,1.49
same,CREB3L3 Raw Est Fold Change,−4.65
same,CREM Raw Est Fold Change,1.71
same,CRP Raw Est Fold Change,−63.77
same,CRYM Raw Est Fold Change,3.57
same,CSDA Raw Est Fold Change,−5.60
same,CTGF Raw Est Fold Change,−3.88
same,CX3CR1 Raw Est Fold Change,9.27
same,CXCL11 Raw Est Fold Change,3.15
same,CYP1B1 Raw Est Fold Change,−6.56
same,CYR61 Raw Est Fold Change,−7.93
same,DHFR Raw Est Fold Change,2.31
same,DNAPTP6 Raw Est Fold Change,2.61
same,EFNB2 Raw Est Fold Change,−7.87
same,EGR1 Raw Est Fold Change,−4.88
same,EHHADH Raw Est Fold Change,6.99
same,EIF2AK2 Raw Est Fold Change,−1.14
same,EIF2S2 Raw Est Fold Change,1.81
same,EMP1 Raw Est Fold Change,2.60
same,EPAS1 Raw Est Fold Change,−1.83
same,EREG Raw Est Fold Change,−21.64
same,ETS2 Raw Est Fold Change,−2.17
same,ETV6 Raw Est Fold Change,−1.87
same,ETV7 Raw Est Fold Change,−3.42
same,EWSR1 Raw Est Fold Change,−2.03
same,F3 Raw Est Fold Change,2.54
same,FAM70A Raw Est Fold Change,4.10
same,FAM102A Raw Est Fold Change,−1.88
same,FBXO6 Raw Est Fold Change,3.59
same,FCGR1A Raw Est Fold Change,2.56
same,FER1L3 Raw Est Fold Change,−2.43
same,FGG Raw Est Fold Change,−1.22
same,FLT1 Raw Est Fold Change,−1.38
same,FNDC3B Raw Est Fold Change,−2.02
same,G6PC Raw Est Fold Change,6.12
same,GALNT2 Raw Est Fold Change,−6.32
same,GBP2 Raw Est Fold Change,−4.50
same,GBP3 Raw Est Fold Change,2.28
same,GCH1 Raw Est Fold Change,1.83
same,GK Raw Est Fold Change,−2.38
same,GLB1 Raw Est Fold Change,−1.33
same,GLUL Raw Est Fold Change,3.54
same,GNB1 Raw Est Fold Change,−1.39
same,GPR171 Raw Est Fold Change,1.93
same,GRN Raw Est Fold Change,−1.37
same,HAO1 Raw Est Fold Change,3.59
same,HBE1 Raw Est Fold Change,−2.67
same,HDAC2 Raw Est Fold Change,−1.34
same,HEG1 Raw Est Fold Change,−4.07
same,HERC6 Raw Est Fold Change,−1.49
same,HESX1 Raw Est Fold Change,3.01
same,HIF1A Raw Est Fold Change,−4.78
same,HK2 Raw Est Fold Change,−3.18
same,HLA-DMA Raw Est Fold Change,−2.39
same,HLA-DOA Raw Est Fold Change,3.70
same,HPSE Raw Est Fold Change,−2.92
same,ICAM1 Raw Est Fold Change,−9.02
same,ID1 Raw Est Fold Change,−5.53
same,IER3 Raw Est Fold Change,−9.69
same,IFI16 Raw Est Fold Change,−11.00
same,IFIH1 Raw Est Fold Change,1.47
same,IFIT1 Raw Est Fold Change,16.72
same,IFIT3 Raw Est Fold Change,2.91
same,IFITM1 Raw Est Fold Change,−15.75
same,IFITM2 Raw Est Fold Change,−4.71
same,IFITM3 Raw Est Fold Change,−1.73
same,IFNGR1 Raw Est Fold Change,−3.76
same,IGHM Raw Est Fold Change,3.80
same,IKZF2 Raw Est Fold Change,−2.69
same,IL1RN Raw Est Fold Change,−2.59
same,IL6ST Raw Est Fold Change,−1.83
same,IL8 Raw Est Fold Change,−9.22
same,IL17RB Raw Est Fold Change,1.38
same,IL28RA Raw Est Fold Change,1.55
same,IMPA2 Raw Est Fold Change,−1.62
same,INPP5B Raw Est Fold Change,1.29
same,IQGAP1 Raw Est Fold Change,−2.60
same,IRF1 Raw Est Fold Change,1.36
same,IRF7 Raw Est Fold Change,−3.42
same,IRF8 Raw Est Fold Change,−1.86
same,ISOC1 Raw Est Fold Change,1.96
same,ITGA2 Raw Est Fold Change,−5.40
same,ITGA6 Raw Est Fold Change,1.89
